The text below walks through data of patent US20190083477A1, “Cyclooxygenase Inhibitor and Calcium Channel Antagonist Compositions and Methods for Use in Urological Procedures” (Omeros Corporation, priority 2005, published 2019).

Experiment [1] relates to rat bladder smooth muscle strips.
The test system of another experiment is rat urinary bladder. The experiment in a line: In vivo rat cystometry model, 0.2% acetic acid infusion (Example I). The settings on record: 10 mg/kg intravenous. How it is done:
The rats were anesthetized with urethane at 1.2 g/kg i.p. in 5 ml/kg. A polyethylene catheter (PE50) was implanted into the bladder for saline or acetic acid infusion through a 3-way stopcock. A pressure transducer was connected for measurements of intravesical pressure. Warm (37° C.) saline was infused into the bladder at a constant rate of […] (1 ml/hour) until cystometry became stable (no less than 60 minutes). Thereafter, 0.2% acetic acid was infused into the urinary bladder. Aspirin (10 mg/kg i.v.) and vehicle were administered intravenously via a PE-10 catheter in the femoral vein at 5 minutes after infusion of acetic acid was started and at the end of first micturition cycle. Dunnett's test was applied for comparison between the time before and after test substance or vehicle treatment. To ascertain differences between the test substance and the vehicle control group, an unpaired Student's t test was used. Differences are considered significant at […].

Experiment [2] deals with bradykinin-induced PGE2 in rat bladder tissue strips. Put plainly: PGE2 release from urinary bladder strips, enzyme immunoassay (Example I). It counts as cell-based. The settings on record: 10 min, 10 minutes of bradykinin challenge, read-out: BK-induced PGE2 IC50.
For experiment [3], the system named is rat bladder smooth muscle strips. The experiment in a line: tissue or blood. The settings on record: read-out: BK-induced Contraction IC50.
Experiment [4] concerns rat bladder tissue strips. Put plainly: tissue or blood. The settings on record: read-out: inhibition of contractile response to bradykinin.
A further experiment concerns rat bladder. The experiment in a line: Acetic-acid overactive bladder model, intravesical delivery, cystometry (Example V). In kind it is in vivo.
In a further experiment the test system is COX. The settings on record: read-out: IC50 in a non-selective COX assay; cited from earlier work.
Experiment [5] has as its system bradykinin-stimulated PGE2 release from rat bladder tissue strips. Put plainly: tissue or blood. The settings on record: read-out: inhibition of bradykinin-evoked PGE2 release.
A further experiment has as its system L-type channel. The settings on record: cited from earlier work.
The mark [6] stands for this setting: in irrigation buffer, 0.2% acetic acid, female rats.

Ends that are not written are not given here. Where only a bound is given, the exact number is not on record here.

Chain of L-type channel (Q13936 whole entry): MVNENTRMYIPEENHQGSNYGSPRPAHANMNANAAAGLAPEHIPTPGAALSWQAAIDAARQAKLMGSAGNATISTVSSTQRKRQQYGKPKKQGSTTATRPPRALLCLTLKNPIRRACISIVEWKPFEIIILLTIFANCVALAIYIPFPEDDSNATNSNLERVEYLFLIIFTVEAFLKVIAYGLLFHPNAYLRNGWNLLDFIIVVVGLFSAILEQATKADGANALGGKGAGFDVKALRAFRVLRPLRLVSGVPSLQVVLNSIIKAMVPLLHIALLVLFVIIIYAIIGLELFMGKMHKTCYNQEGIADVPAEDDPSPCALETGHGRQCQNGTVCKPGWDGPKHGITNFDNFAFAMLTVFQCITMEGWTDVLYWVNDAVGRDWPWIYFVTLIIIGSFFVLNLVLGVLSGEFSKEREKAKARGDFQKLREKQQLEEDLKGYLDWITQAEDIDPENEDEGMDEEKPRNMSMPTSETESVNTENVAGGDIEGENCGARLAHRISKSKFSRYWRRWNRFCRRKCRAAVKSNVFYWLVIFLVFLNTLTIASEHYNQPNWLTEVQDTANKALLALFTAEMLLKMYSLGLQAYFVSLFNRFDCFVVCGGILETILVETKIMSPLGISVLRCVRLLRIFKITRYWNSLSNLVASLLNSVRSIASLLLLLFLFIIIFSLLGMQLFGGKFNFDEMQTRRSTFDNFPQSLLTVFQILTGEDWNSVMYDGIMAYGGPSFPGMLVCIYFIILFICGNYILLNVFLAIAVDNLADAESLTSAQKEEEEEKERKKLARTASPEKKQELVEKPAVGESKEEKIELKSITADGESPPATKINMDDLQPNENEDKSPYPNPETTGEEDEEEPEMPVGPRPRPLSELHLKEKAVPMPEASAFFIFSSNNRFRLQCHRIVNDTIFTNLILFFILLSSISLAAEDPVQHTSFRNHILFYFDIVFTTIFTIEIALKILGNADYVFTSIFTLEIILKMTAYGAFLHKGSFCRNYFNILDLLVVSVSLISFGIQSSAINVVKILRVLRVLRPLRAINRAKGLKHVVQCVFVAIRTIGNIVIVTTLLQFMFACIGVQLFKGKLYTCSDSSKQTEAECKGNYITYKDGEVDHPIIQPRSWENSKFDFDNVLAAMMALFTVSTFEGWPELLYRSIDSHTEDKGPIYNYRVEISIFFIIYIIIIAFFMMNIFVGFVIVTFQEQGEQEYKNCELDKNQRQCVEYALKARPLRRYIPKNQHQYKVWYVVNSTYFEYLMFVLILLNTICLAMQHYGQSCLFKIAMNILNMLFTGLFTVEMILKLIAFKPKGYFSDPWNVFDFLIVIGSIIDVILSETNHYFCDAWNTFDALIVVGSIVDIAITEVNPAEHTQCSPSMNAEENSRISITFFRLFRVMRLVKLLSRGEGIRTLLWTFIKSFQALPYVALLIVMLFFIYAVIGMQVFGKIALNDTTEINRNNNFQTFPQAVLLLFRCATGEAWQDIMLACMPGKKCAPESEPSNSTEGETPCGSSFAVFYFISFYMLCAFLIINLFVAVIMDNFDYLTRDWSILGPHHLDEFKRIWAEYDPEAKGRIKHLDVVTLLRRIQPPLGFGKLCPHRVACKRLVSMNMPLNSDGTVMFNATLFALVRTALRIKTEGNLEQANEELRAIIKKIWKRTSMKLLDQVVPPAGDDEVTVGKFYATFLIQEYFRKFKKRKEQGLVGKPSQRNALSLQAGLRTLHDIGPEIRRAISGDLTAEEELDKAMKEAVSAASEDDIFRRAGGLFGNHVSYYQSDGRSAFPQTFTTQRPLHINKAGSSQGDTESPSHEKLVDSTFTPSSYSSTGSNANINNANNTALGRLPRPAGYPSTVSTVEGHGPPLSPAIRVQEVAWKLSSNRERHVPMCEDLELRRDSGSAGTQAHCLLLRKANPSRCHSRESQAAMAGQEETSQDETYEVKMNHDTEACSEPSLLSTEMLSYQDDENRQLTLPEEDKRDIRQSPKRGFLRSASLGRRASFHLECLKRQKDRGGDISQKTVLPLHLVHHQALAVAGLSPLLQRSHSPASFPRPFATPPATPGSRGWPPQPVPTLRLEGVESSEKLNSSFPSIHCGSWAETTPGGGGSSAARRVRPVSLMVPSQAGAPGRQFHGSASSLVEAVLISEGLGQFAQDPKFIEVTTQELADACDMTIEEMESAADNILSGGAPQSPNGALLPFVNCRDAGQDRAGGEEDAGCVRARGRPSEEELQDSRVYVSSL

Regarding RPPGFSPFR [bradykinin], the EC50 in experiment [1] (read-out: EC50, cumulative concentration-response curve (contraction), agonist on bladder strips of normal animals) came out at 0.0085 µM.

As to `CC(=O)Oc1ccccc1C(=O)O` [aspirin], in the experiment with rat urinary bladder, the Threshold pressure result was “not affected”, the bladder capacity entry is reported as “parallel changes”, the “inhibition of the acetic acid induced reduction in the intercontraction interval (ICI)” value is given as “gradual time-dependent inhibition” and the micturition pressure entry is “not affected”.

On to `CC(C(=O)O)c1ccc(-c2ccccc2)c(F)c1` (stereo not shown) [Flurbiprofen], for which the IC50 came out at 1.65 µM in experiment [2] and 24.8 µM in experiment [3].

Turning to `CC(C(=O)O)c1cccc(C(=O)c2ccccc2)c1` (stereo not drawn) [Ketoprofen, 3-benzoyl-α-methylbenzeneacetic acid], the inhibition at 10 µM in experiment [4] stood at 67%; in experiment [5] it was 81%. For the same molecule, the “concentration giving complete inhibition of the shortening of the ICI” value in the experiment with rat bladder (setting [6]) is on record as “approximately 3 μM”. Moreover, the IC50 in the experiment with COX is 0.004 to 0.008 µM.

For the molecule `CS(=O)(=O)c1ccc(-n2nc(C(F)(F)F)cc2-c2ccc(F)cc2)cc1` [SC-58125, 1-[(4-methysufonyl)phenyl]-3-tri-fluoromethyl-5-(4-fluorophenyl)pyrazole], the IC50 in experiment [2] and in experiment [3] was above 25 µM throughout.

With `CS(=O)(=O)c1ccc(-c2cc(Br)sc2-c2ccc(F)cc2)cc1` [DUP-697, 5-bromo-2-(4-fluorophenyl)-3-(4-methylsulfonyl) thiophene], the IC50 in [2] and in [3] was above 25 µM each time.

`COC(=O)C1=C(C)NC(C)=C(C(=O)OC)C1c1ccccc1[N+](=O)[O-]` [Nifedipine, 1,4-dihydro-2,6-dimethyl-4-(2-nitrophenyl)-3,5-pyridinedicarboxylic acid dimethyl ester]: the “concentration of maximal effects on the shortening of the ICI” value in the experiment on rat bladder (setting [6]) turned out to be 1 µM. The “ICI plateau at higher concentrations” value with rat bladder (nifedipine above 1 μM in irrigation buffer) is “approximately 75 % of baseline”. Further, in experiment [1] (single agent, 10 min incubation), the “type of antagonism upon bradykinin-induced contractile responses” value is reported as “noncompetitive”. Moreover, the onset of action result in the experiment on L-type channel is “less than 10 minutes”.

As a reminder, the IC50 is the midpoint of a concentration-inhibition curve. What is called inhibition is the drop in the measured response relative to a control, in per cent.
